{"source": "patent US20240292843A1", "about": "“BIOFILM REMOVAL” (PARTNERS FOR ENDOSCOPY LIMITED, priority 2021, published 2024)", "system": "biofilm containing Pseudomonas aeruginosa", "assay": "Biofilm treatment of endoscope biopsy channel pieces, CFU by serial dilution and plate counting (FIG. 1)", "assay_type": "cell-based", "settings": "mature biofilm on biopsy channel tubes; treatment applied for 5 minutes; 1.5 wt. % hydrogen peroxide or 1 mg/ml zeolite Y, aqueous; versus phosphate-buffer saline control; triplicate", "experimental": "The biopsy channel of the endoscope harbors a biofilm containing Pseudomonas aeruginosa. As a first step, to form the sample biopsy tubes harboring the biofilm, the biopsy channel was first cut into small pieces, which are then submerged into Müller-Hilton broth. A single colony of Pseudomonas aeruginosa was added to the broth. At a second step, the pieces were kept in the broth at 37° C. for 24 hours to allow the bacteria to grow. Also in the second step, the tube pieces were then washed 5 times with a copious amount of water to remove dangling bacteria, and to leave only fixed biofilm remaining on the surface of the tubes. The second step is then repeated three times to provide a mature biofilm. To provide the data of FIG. 1, different treatment mixtures were applied for 5 minutes to the tubes with mature biofilm. The tubes with mature biofilm were prepared using the method above. After the treatment mixture is applied, the tubes are washed. The tubes are then placed in a centrifuge tube floating in an ultrasonic bath to release bacteria in the biofilm into solution. The number of colony forming units (CFU) is calculated via serial dilution and plate counting method. Each experiment is performed in triplicate.", "data": [{"compound": "OO", "note": "[hydrogen peroxide]", "values": [{"measurement": "number of colony forming units of the Pseudomonas aeruginosa bacteria", "value": "causes a reduction"}]}]}
